# From patent US6855804B2, “Covalently reactive transition state analogs and methods of use thereof” (Board of Regents, The University of Texas System, priority 1998, dated 2005)
# Non-standard residues stand in square brackets, D forms with d. Residues, ends and D or L forms follow the SMILES beside them. *: point of attachment. Sta = CC(C)C[C@H](N)[C@@H](O)CC(=O)O; Isovaleryl = CC(C)CC(=O)*
# Assays:
# L chain GG63 = L chain GG63 (Homo sapiens, UniProt P01834); test: Inhibition of L chain GG63 catalysed PFR-MCA cleavage
# Fv YZ17 [1] = type: biochemical, mouse
# [2] = biological target: trypsin (porcine, type IX) (Sus scrofa, UniProt P00761); test: biochemical; type: biochemical
# L chain hk14 [3] = type: biochemical
# Fv mRT3 = type: biochemical
# L chain c23.5 [4] = type: biochemical
# L chain hk14 [5] = type: binding
# L chain U16 [6] = type: binding, mouse
# L chain U16 [7] = type: biochemical, mouse
# [8] = test system: VIPase antibody fragments; type: biochemical
# L chain c23.5 [9] = type: binding
# Fv YZ17 [10] = type: binding, mouse
# L chain clone c23.5 = type: binding
# L chain clone SK35 = type: binding
# Thrombin (human, a) = Thrombin (human, a) (Homo sapiens, UniProt P00734); type: biochemical
# trypsin = trypsin (Sus scrofa, UniProt P00761); type: binding, porcine
# Chain of trypsin (P00761 9-231): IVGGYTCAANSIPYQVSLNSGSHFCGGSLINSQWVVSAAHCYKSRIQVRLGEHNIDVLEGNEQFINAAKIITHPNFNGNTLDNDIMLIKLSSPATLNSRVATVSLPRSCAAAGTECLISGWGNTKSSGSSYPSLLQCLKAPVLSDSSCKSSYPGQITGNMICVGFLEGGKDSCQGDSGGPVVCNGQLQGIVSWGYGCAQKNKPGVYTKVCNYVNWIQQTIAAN
# Chain of trypsin (porcine, type IX) (P00761 9-231): as above
molecule,measurement,setting,value
"NC(=O)CI [Iodoacetamide, iodoacetamide]","Inhibition, % Iodoacetamide",L chain GG63,5.8%
same,"Inhibition, % Iodoacetamide",Fv YZ17 [1],4.4%
"N=C(N)c1ccc(C(NC(=O)OCc2ccccc2)P(=O)(Oc2ccccc2)Oc2ccccc2)cc1 (stereo not shown) [Compound 1, Diphenyl N-(benzyloxycarbonyl)amino(4-amidinophenyl)methanephosphonate, reference compound]","k2, first-order rate constant for formation of covalent adduct",[2],2.0 min⁻¹
same,kapp/[I],[2],3703 M⁻¹ s⁻¹
same,ΔG of noncovalent enzyme-inhibitor interactions (ΔG=−RTlnKi),[2],7.3 kcal/mol
phenylphosphonate 4-nitrophenyl [N-(6-biotinylhexanediamin-1-yl)carboxymethyl]tropan-3-ol diester [diester II],inhibition of cleavage of PFR-MCA,L chain hk14 [3],71%
same,inhibition of cleavage of PFR-MCA,Fv mRT3,92%
same,inhibition of cleavage of PFR-MCA,L chain c23.5 [4],83%
same,"II labeling of monomer L chain, % of the Fv level",L chain hk14 [5],33%
same,"II labeling of monomer L chain, % of the Fv level",L chain U16 [6],51%
same,inhibition of cleavage of PFR-MCA,L chain U16 [7],79%
same,irreversibility of peptidase inhibition after removal of free inhibitor by gel filtration,[8],did not restore the catalytic activity
same,"II labeling of monomer L chain, % of the Fv level",L chain c23.5 [9],18%
"N=C(N)c1ccc(C(NC(=O)CCCCCNC(=O)CCCC[C@@H]2SC[C@@H]3NC(=O)N[C@@H]32)P(=O)(O)Oc2ccccc2)cc1 (stereo partly shown) [Compound 4, Monophenyl N-[6-(biotinamido)hexanoyl]amino(4-amidinophenyl)methanephosphonate]",stable adduct formation with Fv YZ17,Fv YZ17 [10],adducts stable to denaturing treatments were observed
same,stable adduct formation with L chain c23.5,L chain clone c23.5,failed to form stable 4-adduct
same,stable adduct formation with L chain SK35,L chain clone SK35,adducts stable to denaturing treatments were observed
"N=C(N)c1ccc(C(NC(=O)CCSSCCC(=O)NCCNC(=O)CCCCC2SCC3NC(=O)NC32)P(=O)(O)Oc2ccccc2)cc1 (stereo not shown) [Compound 3, Monophenyl-N-[2-(biotinamido)ethylamido-3,3′-dithiodipropionyl]amino(4-amidinophenyl)methanephosphonate]",inhibition of trypsin activity after pretreatment and dilution,[2],85%
same,inhibition of trypsin without pretreatment,[2],no inhibition
same,inhibition of trypsin-catalyzed EAR-MCA hydrolysis,[2],9.9-80%
same,irreversibility of trypsin inhibition,[2],irreversible
same,"k3, first-order rate constant for decomposition of Ei-I",[2],~0
same,trypsin activity level following gel filtration,[2],27.6±2.6 FU/h
same,trypsin activity level without removal of phosphonate,[2],33.2±2.6 FU/h
same,trypsin activity of adduct isolated by gel filtration after incubation in buffer,[2],50.2±7.0 FU/h
same,irreversible inhibition of thrombin activity,"Thrombin (human, a)",inhibition of activity despite dilution
same,irreversible inhibition of YZ17 activity,Fv YZ17 [1],inhibition of activity despite dilution
same,covalent labeling of trypsin (adducts after denaturing treatment),trypsin,labeled
"CC(C)CC(=O)N[C@H](C(=O)N[C@H](C(=O)N[C@@H](CC(C)C)[C@@H](O)CC(=O)N[C@@H](C)C(=O)N[C@@H](CC(C)C)[C@@H](O)CC(=O)O)C(C)C)C(C)C [Pepstatin A, pepstatin A] (Isovaleryl-VV[Sta]A[Sta]-OH)","Inhibition, % Pepstatin A",L chain GG63,0.2 (1.3) %
same,"Inhibition, % Pepstatin A",Fv YZ17 [1],1.2 (2.9) %
"c1cnc2c(c1)ccc1cccnc12 [Phenanthroline, phenanthroline]",inhibition at 10000 µM,"L chain GG63; read-out: Inhibition, % Phenanthroline",0.6%
same,"Inhibition, % Phenanthroline",Fv YZ17 [1],0.2%
"N=C(N)c1ccc(C(NC(=O)OCc2ccccc2)P(=O)(O)Oc2ccccc2)cc1 (stereo not shown) [Compound 2, Monophenyl N-(benzyloxycarbonyl)amino(4-amidinophenyl)methanephosphonate]",Ki,[2],5.2 mM
same,kinact/KI,[2]; read-out: k2/Ki,1.5 M⁻¹ s⁻¹
"N=C(N)c1ccc(C(NC(=O)CCSSCCC(=O)NCCNC(=O)CCCCC2SCC3NC(=O)NC32)P(=O)(Oc2ccccc2)Oc2ccccc2)cc1 (stereo not shown) [Compound 5, Diphenyl-N-[2-(biotinamido)ethylamido-3,3′-dithiodipropionyl]amino(4-amidinophenyl)methanephosphonate]",kapp/[I],[2],0.23 M⁻¹ s⁻¹
same,trypsin activity level following gel filtration,[2],5.0±0.1 FU/h
same,trypsin activity level without removal of phosphonate,[2],6.5±0.2 FU/h
same,covalent labeling of trypsin (adducts after denaturing treatment),trypsin,labeled
